Measurements reported in PubChem BioAssay (NCI).
Several values for one entry are separate records, joined by “and”; a condition that tells them apart may be missing. Equal values may be shown once.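 In this assay, cells in 96-well plates receive the compound at five concentrations for 48 hours. Endpoints are linearly interpolated between the surrounding concentrations. GI50: concentration for 50% inhibition of growth. TGI: concentration producing complete growth inhibition.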

Key:
Assay in all cases: NCI tumour cell line growth inhibition, 48 h
OVCAR-4 ovarian = test system: OVCAR-4 ovarian
U251 CNS = test system: U251 CNS
UACC-257 melanoma = test system: UACC-257 melanoma
DU-145 prostate = test system: DU-145 prostate
SK-OV-3 ovarian = test system: SK-OV-3 ovarian
SF-539 CNS = test system: SF-539 CNS
SK-MEL-28 melanoma = test system: SK-MEL-28 melanoma
SK-MEL-2 melanoma = test system: SK-MEL-2 melanoma
SW-620 colon = test system: SW-620 colon
HT29 colon = test system: HT29 colon

SMILES | GI50 (OVCAR-4 ovarian) | TGI (OVCAR-4 ovarian) | GI50 (U251 CNS) | TGI (U251 CNS) | GI50 (UACC-257 melanoma) | TGI (UACC-257 melanoma) | GI50 (DU-145 prostate) | TGI (DU-145 prostate) | GI50 (SK-OV-3 ovarian) | TGI (SK-OV-3 ovarian) | GI50 (SF-539 CNS) | TGI (SF-539 CNS) | GI50 (SK-MEL-28 melanoma) | TGI (SK-MEL-28 melanoma) | GI50 (SK-MEL-2 melanoma) | TGI (SK-MEL-2 melanoma) | GI50 (SW-620 colon) | TGI (SW-620 colon) | GI50 (HT29 colon) | TGI (HT29 colon)
Cc1ccc(NC2=C(Cl)C(=O)N(Cc3ccccc3)C2=O)cc1O | 79.3 µM | > 100 µM | 18.7 µM | 84.6 µM | 39.5 µM | > 100 µM | 60.1 µM | > 100 µM | 55.2 µM | > 100 µM | 25 µM | 76 µM | 52.8 µM | > 100 µM | 7.83 µM | 54.8 µM | 39.2 µM | > 100 µM |  | 
COC1CCC(N2C(=O)CNc3ncc(-c4ccc(C(C)(C)O)nc4)nc32)CC1 (stereo not drawn) | 0.568 µM and 0.12 µM | > 7.88 µM and 1.07 µM | 1.41 µM and 1.06 µM | > 33.4 µM | 0.649 µM and 0.195 µM | 5.23 µM and 3.83 µM | 1.42 µM and 0.459 µM | > 38 µM | 0.464 µM and 0.0716 µM | 3.93 µM and 0.551 µM | 1.42 µM and 0.335 µM | 6.95 µM and 4.7 µM | 0.378 µM and 0.155 µM | 4.1 µM and 10.4 µM | 0.772 µM and 0.183 µM | 3.69 µM and 1.48 µM | 1.78 µM and 0.935 µM | > 37.5 µM | 1.83 µM and 0.472 µM | > 38.4 µM
O=CN/C=C/c1cc(O)ccc1O |  | 32.2 µM |  | > 66 µM |  | 27.8 µM |  | > 100 µM |  | > 90.5 µM |  | 43.9 µM |  | > 78.5 µM |  | > 71.9 µM |  | 21.5 µM |  | 56.5 µM
Cc1ccc(C(=O)/C(=C/c2ccc([N+](=O)[O-])cc2)SCc2ccc(Cl)cc2)cc1 | 1.87 µM | 6.37 µM | 1.11 µM | 2.4 µM | 9.77 µM | 34.2 µM | 5.33 µM | > 100 µM | 27.4 µM | > 100 µM | 2.06 µM | 4.49 µM | 3.36 µM | 14.7 µM | 15.8 µM | 63.2 µM | 0.21 µM | 0.523 µM | 0.676 µM | 2.86 µM
NC(=O)c1sc(-n2cnc3ccccc32)cc1OCc1ccccc1Br | > 25 µM | > 25 µM | 4.44 µM | > 25 µM | 17.3 µM | > 25 µM | 2.02 µM | 7.19 µM | 6.94 µM | > 25 µM | 5.47 µM | > 25 µM | > 25 µM | > 25 µM | 6.43 µM | > 25 µM | 1.17 µM | > 25 µM | 1.06 µM | > 25 µM
O=C1CC(c2ccc3c(c2)OCO3)Nc2ccccc21 (stereo not drawn) | 12.2 µM | 56.7 µM | 8.46 µM | 24.7 µM | 26.4 µM | > 60.4 µM | 3.1 µM | 12.6 µM | 16.8 µM | > 100 µM | 10.8 µM | 24 µM | 15.1 µM | 32.7 µM | 12.7 µM | > 62.8 µM | 6.61 µM | 23.1 µM | 7.76 µM | 33.1 µM
COc1cc(-c2nn(-c3ccc(NC(=O)c4ccc(Cl)c(C(F)(F)F)c4)cc3)cc2-c2ccncc2)ccc1Cl | 5.05 µM | > 100 µM | 2.08 µM | 56.7 µM | 6.91 µM | > 100 µM | 4.59 µM | > 100 µM | > 27.1 µM | > 100 µM | 1.83 µM | 8.6 µM | 2.62 µM | > 61.9 µM | 3.12 µM | > 28.5 µM | 3.31 µM | > 100 µM | 1.8 µM | 4.25 µM
